# Experimental data: PubChem BioAssay (NCI)
#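 Assay format: 96-well plates, 48-hour exposure. The concentration for 50% growth inhibition is given as GI50. TGI: concentration producing complete growth inhibition.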
# Legend:
# Assay in all cases: NCI tumour cell line growth inhibition, 48 h
# UACC-62 melanoma = tested on: UACC-62 melanoma
# IGROV1 ovarian = tested on: IGROV1 ovarian
# SF-539 CNS = tested on: SF-539 CNS
# A549 NSCLC = tested on: A549 NSCLC
# MDA-MB-231 breast = tested on: MDA-MB-231 breast
# UO-31 renal = tested on: UO-31 renal
# UACC-257 melanoma = tested on: UACC-257 melanoma
# HCC-2998 colon = tested on: HCC-2998 colon
# BT-549 breast = tested on: BT-549 breast
# HT29 colon = tested on: HT29 colon
# OVCAR-8 ovarian = tested on: OVCAR-8 ovarian
# NCI-H460 lung = tested on: NCI-H460 lung
# M14 melanoma = tested on: M14 melanoma
# NCI-H522 lung = tested on: NCI-H522 lung
# DU-145 prostate = tested on: DU-145 prostate
# HCT-15 colon = tested on: HCT-15 colon
# NCI/ADR-RES ovarian = tested on: NCI/ADR-RES ovarian
# 786-0 renal = tested on: 786-0 renal
# U251 CNS = tested on: U251 CNS
# SK-MEL-2 melanoma = tested on: SK-MEL-2 melanoma
# A498 renal = tested on: A498 renal
# TK-10 renal = tested on: TK-10 renal
# SK-MEL-5 melanoma = tested on: SK-MEL-5 melanoma
# HL-60(TB) leukemia = tested on: HL-60(TB) leukemia
# HCT-116 colon = tested on: HCT-116 colon
# MCF7 breast = tested on: MCF7 breast
# HOP-62 NSCLC = tested on: HOP-62 NSCLC
# SW-620 colon = tested on: SW-620 colon
# NCI-H226 lung = tested on: NCI-H226 lung
# EKVX NSCLC = tested on: EKVX NSCLC
# SK-OV-3 ovarian = tested on: SK-OV-3 ovarian
# SK-MEL-28 melanoma = tested on: SK-MEL-28 melanoma
# CAKI-1 renal = tested on: CAKI-1 renal
# ACHN renal = tested on: ACHN renal
# SNB-19 CNS = tested on: SNB-19 CNS
# OVCAR-5 ovarian = tested on: OVCAR-5 ovarian
# COLO 205 colon = tested on: COLO 205 colon
# KM12 colon = tested on: KM12 colon
# LOX IMVI melanoma = tested on: LOX IMVI melanoma
# SN12C renal = tested on: SN12C renal
# HS 578T breast = tested on: HS 578T breast
# SNB-75 CNS = tested on: SNB-75 CNS
# SF-295 CNS = tested on: SF-295 CNS
# HOP-92 NSCLC = tested on: HOP-92 NSCLC
# OVCAR-4 ovarian = tested on: OVCAR-4 ovarian
# T-47D breast = tested on: T-47D breast
# MDA-MB-435 = tested on: MDA-MB-435
compound,measurement,setting,value
Nc1nc(N)c2c(n1)NC(c1ccccc1)CC(c1ccc(Nc3nc(NCCO)nc(Nc4ccc(Cl)cc4)n3)cc1)=N2 (centres undefined),GI50,UACC-62 melanoma,1840 nM
same,TGI,UACC-62 melanoma,3320 nM
same,GI50,IGROV1 ovarian,1560 nM
same,TGI,IGROV1 ovarian,3130 nM
same,GI50,SF-539 CNS,1600 nM
same,TGI,SF-539 CNS,3060 nM
same,GI50,A549 NSCLC,2840 nM
same,TGI,A549 NSCLC,9180 nM
same,GI50,MDA-MB-231 breast,1750 nM
same,TGI,MDA-MB-231 breast,3480 nM
same,GI50,UO-31 renal,1870 nM
same,TGI,UO-31 renal,4290 nM
same,GI50,UACC-257 melanoma,1900 nM
same,TGI,UACC-257 melanoma,3490 nM
same,GI50,HCC-2998 colon,1680 nM
same,TGI,HCC-2998 colon,3100 nM
same,GI50,BT-549 breast,1770 nM
same,TGI,BT-549 breast,3200 nM
same,GI50,HT29 colon,1770 nM
same,TGI,HT29 colon,3330 nM
same,GI50,OVCAR-8 ovarian,1460 nM
same,TGI,OVCAR-8 ovarian,3100 nM
same,GI50,NCI-H460 lung,1850 nM
same,TGI,NCI-H460 lung,3470 nM
same,GI50,M14 melanoma,1840 nM
same,TGI,M14 melanoma,3350 nM
same,GI50,NCI-H522 lung,1790 nM
same,TGI,NCI-H522 lung,3480 nM
same,GI50,DU-145 prostate,1800 nM
same,TGI,DU-145 prostate,3380 nM
same,GI50,HCT-15 colon,1380 nM
same,TGI,HCT-15 colon,2840 nM
same,GI50,NCI/ADR-RES ovarian,4330 nM
same,TGI,NCI/ADR-RES ovarian,> 100000 nM
same,GI50,786-0 renal,1630 nM
same,TGI,786-0 renal,3080 nM
same,GI50,U251 CNS,1530 nM
same,TGI,U251 CNS,2990 nM
same,GI50,SK-MEL-2 melanoma,1380 nM
same,TGI,SK-MEL-2 melanoma,2780 nM
same,GI50,A498 renal,1540 nM
same,TGI,A498 renal,3030 nM
same,GI50,TK-10 renal,2090 nM
same,TGI,TK-10 renal,3870 nM
same,GI50,SK-MEL-5 melanoma,1420 nM
same,TGI,SK-MEL-5 melanoma,2720 nM
same,GI50,HL-60(TB) leukemia,319 nM
same,TGI,HL-60(TB) leukemia,1480 nM
same,GI50,HCT-116 colon,1510 nM
same,TGI,HCT-116 colon,2840 nM
same,GI50,MCF7 breast,1510 nM
same,TGI,MCF7 breast,3040 nM
same,GI50,HOP-62 NSCLC,1740 nM
same,TGI,HOP-62 NSCLC,3240 nM
same,GI50,SW-620 colon,1870 nM
same,TGI,SW-620 colon,3480 nM
same,GI50,NCI-H226 lung,11500 nM
same,TGI,NCI-H226 lung,31300 nM
same,GI50,EKVX NSCLC,1640 nM
same,TGI,EKVX NSCLC,3170 nM
same,GI50,SK-OV-3 ovarian,17700 nM
same,TGI,SK-OV-3 ovarian,32000 nM
same,GI50,SK-MEL-28 melanoma,1730 nM
same,TGI,SK-MEL-28 melanoma,3120 nM
same,GI50,CAKI-1 renal,2300 nM
same,TGI,CAKI-1 renal,5790 nM
same,GI50,ACHN renal,1950 nM
same,TGI,ACHN renal,4360 nM
same,GI50,SNB-19 CNS,1580 nM
same,TGI,SNB-19 CNS,2990 nM
same,GI50,OVCAR-5 ovarian,1940 nM
same,TGI,OVCAR-5 ovarian,3750 nM
same,GI50,COLO 205 colon,1790 nM
same,TGI,COLO 205 colon,3310 nM
same,GI50,KM12 colon,1900 nM
same,TGI,KM12 colon,3540 nM
same,GI50,LOX IMVI melanoma,1540 nM
same,TGI,LOX IMVI melanoma,2950 nM
same,GI50,SN12C renal,1740 nM
same,TGI,SN12C renal,3540 nM
same,GI50,HS 578T breast,1980 nM
same,TGI,HS 578T breast,5150 nM
same,GI50,SNB-75 CNS,1560 nM
same,TGI,SNB-75 CNS,3130 nM
same,GI50,SF-295 CNS,1570 nM
same,TGI,SF-295 CNS,2970 nM
same,GI50,HOP-92 NSCLC,1420 nM
same,TGI,HOP-92 NSCLC,3090 nM
same,GI50,OVCAR-4 ovarian,1720 nM
same,TGI,OVCAR-4 ovarian,3760 nM
same,GI50,T-47D breast,1520 nM
same,TGI,T-47D breast,3320 nM
same,GI50,MDA-MB-435,1740 nM
same,TGI,MDA-MB-435,3170 nM
